“And” between values parts separate entries of the source, which are not always exact repeats. Equal values may be shown once.

The test has as its system 699152-130-R-J1-PDC complex spheroid viability. In words: Anticancer human tumor 699152-130-R-J1-PDC patient-derived pancreatic carcinoma cell line growth inhibition [POLQ]. As to conditions: for viability, T/C: stronger effect = lower value. On the procedure: Multicellular complex tumor spheroid response to Polymerase (POL) inhibitors (novobiocin, ART-558, RP6685) in combination with a variety of drugs and investigational agents in selected tumor cell lines
The POL inhibitors (novobiocin, ART-558, and RP6685) were evaluated both individually and in combination with standard of care and investigational anticancer small molecules within a complex spheroid model of solid tumors. . Complex spheroids include a stromal component modeled by human endothelial cells (HUVEC) and fibroblasts modeled by human mesenchymal stem cells (MSCs). The concentration ranges selected for each drug and investigational agent were based upon clinically achievable concentrations if the clinical Cmax of the agent was known.
Compounds. The drugs and investigational agents: novobiocin (NSC847541), ART-558 (NSC835418), RP-6685 (NSC848927), peposertib (NSC802822), ceralasertib (NSC780249), elimusertib (NSC800525), camonsertib (NSC841442), AZD-1390 (NSC803789), olaparib (NSC753686), talazoparib (NSC767125), rucaparib (NSC756644), sotorasib (NSC818433), MRTX-1133 (NSC836407), SN-38 (NSC673596), topotecan (NSC609699), epotoside (NSC141540), doxorubicin (NSC123127), gemcitabine (NSC613327), 5-fluorouracil (NSC19893), paclitaxel (NSC125973), vemurafenib (NSC761431), MSA-2 (NSC828583), SN-011 (NSC837082), adavosertib (NSC754352), prexasertib (NSC758257), carboplatin (NSC241240) and oxaliplatin (NSC266046), were obtained from the National Cancer Institute (NCI) Developmental Therapeutics Program Chemical Repository (21). The FDA-approved anticancer drug set is available from the Developmental Therapeutics Program at https://dtp.cancer.gov/organization/dscb/obtaining/. […] The stock solutions were prepared in dimethyl sulfoxide (DMSO, Sigma-Aldrich, St. Louis, MO, cat. D2650), except for the platinum compounds which were prepared in saline (Quality Biological, Gaithersburg, MD, cat. 114-055-101), at 800-fold the tested concentration and stored at -70 degrees C prior to their use. All drugs and investigational agents were tested over a range starting from a high concentration at or near the clinical Cmax and decreasing in half-log increments. If the clinical Cmax for an agent had not been determined, the highest concentration tested was 10 microM, except for SN-38, which was tested at a high concentration of 1 microM.
Cell Culture. All cells were maintained in an incubator at 37 degrees C and 5% CO2 with 95% humidity. The PDC lines were cultured according to standard operating procedures established by the NCI PDMR (https://pdmr.cancer.gov). Table 3 of the manuscript, lists the cell lines along with the number of the three cell types plated to form the mct-spheroids and media for tumor cell growth. After thawing, all PDC lines, except 997537-175-T-J1-PDC and 415267-285-R-J2-PDC, were cultured in Matrigel-coated flasks prepared with a working solution of 1X Ham's F-12 nutrient mix, without supplementation (Thermo Fisher Scientific, cat. 11765054), 100 U/mL penicillin-streptomycin (Thermo Fisher Scientific, cat. 15140122), and 2.5% Matrigel (Corning Inc., Corning, NY, cat. 354248) for the first three passages. The two PDC lines 997537-175-T-J1-PDC and 415267-285-R-J2-PDC were cultured on uncoated flasks. The 857933-349-R-J2-PDC line was cultured in 6C/Colon 1B media containing advanced DMEM/F-12 (Thermo Fisher Scientific, cat. 12634028), 10 mM HEPES (Thermo Fisher Scientific, cat. 15630080), 1X GlutaMAX supplement (Thermo Fisher Scientific, cat. 35050061), 0.1 mg/mL primocin (InvivoGen, San Diego, CA, cat. ant-pm-2), 10% defined fetal bovine serum, heat inactivated (HyClone Laboratories Inc., Logan, UT, cat. SH30070.03HI), 50% L-WRN conditioned media (ATCC, cat. CRL-3276), 1.25 mM N-Acetyl-L-cysteine (Sigma-Aldrich, cat. A9165), 10 mM nicotinamide (Sigma-Aldrich, cat. N0636), 1X B-27 supplement (Thermo Fisher Scientific, cat. 17504044), 1X N-2 supplement (Thermo Fisher Scientific, cat. […]
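Further: spheroids exposed to agents for 7 days before viability reading.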
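Wherever viability, T/C is given: percent of DMSO vehicle control viability so 100% = vehicle and 0% = no viable signal.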

The IC50 is the point on the concentration scale where inhibition reaches its midpoint. Broadly, the viability, T/C is the result in the treated group divided by that in the control group, in per cent. On to `C=CCn1c(=O)c2cnc(Nc3ccc(N4CCN(C)CC4)cc3)nc2n1-c1cccc(C(C)(C)O)n1` + COC1C(OC(N)=O)C(O)C(Oc2ccc3c(O)c(NC(=O)c4ccc(O)c(CC=C(C)C)c4)c(=O)oc3c2C)OC1(C)C, for which the IC50 is, setting by setting: (curve of first compound, second compound 0.0316 µM) over 1 µM; (curve of first compound, second compound 0.1 µM) over 1 µM; (curve of first compound, second compound 0.316 µM) over 1 µM; (curve of first compound, second compound 1 µM) over 1 µM; (curve of first compound, second compound 3.16 µM) over 1 µM; (curve of first compound, second compound 10 µM) over 1 µM. Also, the viability, T/C is, setting by setting: (second compound 0.0316 µM, first compound 0.00316 µM) 90.2%; (second compound 0.0316 µM, first compound 0.01 µM) 98.2%; (second compound 0.0316 µM, first compound 0.0316 µM) 99.4%; (second compound 0.0316 µM, first compound 0.1 µM) 90.2%; (second compound 0.0316 µM, first compound 0.316 µM) 94.6%; (second compound 0.0316 µM, first compound 1 µM) 77.4%. Besides, the viability, T/C reads like this: (second compound 0.1 µM, first compound 0.00316 µM) 102%; (second compound 0.1 µM, first compound 0.01 µM) 102%; (second compound 0.1 µM, first compound 0.0316 µM) 109%; (second compound 0.1 µM, first compound 0.1 µM) 95%; (second compound 0.1 µM, first compound 0.316 µM) 98.7%; (second compound 0.1 µM, first compound 1 µM) 75%. Further, the viability, T/C is 97.7% (second compound 0.316 µM, first compound 0.00316 µM); 95.1% (second compound 0.316 µM, first compound 0.01 µM); 94.8% (second compound 0.316 µM, first compound 0.0316 µM); 104% (second compound 0.316 µM, first compound 0.1 µM); 104% (second compound 0.316 µM, first compound 0.316 µM); 70.7% (second compound 0.316 µM, first compound 1 µM). Also, the viability, T/C by setting is: (second compound 1 µM, first compound 0.00316 µM) 108%; (second compound 1 µM, first compound 0.01 µM) 93.9%; (second compound 1 µM, first compound 0.0316 µM) 92.1%; (second compound 1 µM, first compound 0.1 µM) 99.5%; (second compound 1 µM, first compound 0.316 µM) 90%; (second compound 1 µM, first compound 1 µM) 74%. Further, the viability, T/C runs as follows: (second compound 3.16 µM, first compound 0.00316 µM) 107%; (second compound 3.16 µM, first compound 0.01 µM) 92.9%; (second compound 3.16 µM, first compound 0.0316 µM) 105%; (second compound 3.16 µM, first compound 0.1 µM) 96.6%; (second compound 3.16 µM, first compound 0.316 µM) 96.4%; (second compound 3.16 µM, first compound 1 µM) 76.5%. Further, the viability, T/C runs as follows: (second compound 10 µM, first compound 0.00316 µM) 99.1%; (second compound 10 µM, first compound 0.01 µM) 101%; (second compound 10 µM, first compound 0.0316 µM) 96.3%; (second compound 10 µM, first compound 0.1 µM) 98.7%; (second compound 10 µM, first compound 0.316 µM) 95%; (second compound 10 µM, first compound 1 µM) 68%.
`CNCc1ccc(-c2[nH]c3cc(F)cc4c3c2CCNC4=O)cc1`: the viability, T/C runs as follows: (compound 0.0316 µM) 96.2% and 95.6% and 99%; (compound 0.1 µM) 99.8% and 91.1% and 101%; (compound 0.316 µM) 118% and 90.3% and 99.8%; (compound 1 µM) 106% and 108% and 112%; (compound 3.16 µM) 119% and 117% and 138%; (compound 10 µM) 111% and 109% and 130%. The IC50 (curve of compound) is over 10 µM.
In the case of `O=C(Nc1ccc(O)c(NS(=O)(=O)c2ccc(F)cc2)c1)c1ccc(-c2ccccc2)cc1`, the viability, T/C runs as follows: (compound 0.0316 µM) 114% and 90.3% and 92.6%; (compound 0.1 µM) 104% and 94.2% and 112%; (compound 0.316 µM) 101% and 103% (2×); (compound 1 µM) 102% and 109% and 107%; (compound 3.16 µM) 106% and 108% and 112%; (compound 10 µM) 71.6% and 70% and 81.6%. Besides, the IC50 (curve of compound) is over 10 µM.
In the case of `COc1cc2cc(C(=O)CCC(=O)O)sc2cc1OC`, the viability, T/C reads like this: (compound 0.0316 µM) 101% (2×) and 90.4%; (compound 0.1 µM) 98.7% and 97.3% and 103%; (compound 0.316 µM) 94.8% and 103% and 101%; (compound 1 µM) 102% and 96.4% and 105%; (compound 3.16 µM) 111% (2×) and 91.5%; (compound 10 µM) 99.7% and 93.3% and 99.9%. The IC50 (curve of compound) is over 10 µM.

(Values after PubChem BioAssay AID1963835 (Molecular Pharmacology Branch, DTP, NCI, 2024).)
